# Test results from PubChem BioAssay (NCI).
# Values joined by “and” are separate entries in the source; they are usually repeats but may differ in a detail not shown here. Identical values can stand only once.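 Growth conditions: 96-well plates. Treatment: test compound, 48 hours, 5 concentrations. Analysis: linear interpolation between bracketing concentrations; unreached endpoints set to highest concentration. GI50 is the concentration that inhibits growth by half. TGI marks complete inhibition of growth.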
# Key:
# Experiment in all cases: NCI tumour cell line growth inhibition, 48 h
# [1] = test system: OVCAR-8 ovarian
# [2] = test system: SNB-75 CNS
# [3] = test system: SK-MEL-5 melanoma
# [4] = test system: HOP-92 NSCLC
# [5] = test system: SF-268 CNS
# [6] = test system: HT29 colon
# [7] = test system: NCI-H522 lung
# [8] = test system: LOX IMVI melanoma
# [9] = test system: A498 renal
# [10] = test system: RXF 393 renal
SMILES,GI50 [1],TGI [1],GI50 [2],TGI [2],GI50 [3],TGI [3],GI50 [4],TGI [4],GI50 [5],TGI [5],GI50 [6],TGI [6],GI50 [7],TGI [7],GI50 [8],TGI [8],GI50 [9],TGI [9],GI50 [10],TGI [10]
CCCCc1nc2cc(/C=C/C(=O)NO)ccc2n1CCN(CC)CC,0.104 µM,5.54 µM,0.227 µM,25.4 µM,0.146 µM,0.339 µM,0.0821 µM,0.456 µM,0.552 µM,7.55 µM,0.198 µM,0.762 µM,0.0802 µM,0.52 µM,0.291 µM,1.28 µM,0.194 µM,0.658 µM,0.178 µM,0.789 µM
CN(Cc1ccccc1)C1(N(C)Cc2ccccc2)CC1,,> 100 µM,,> 100 µM,,> 100 µM,,> 100 µM,,> 100 µM,,> 100 µM,,> 100 µM,,> 100 µM,,> 100 µM,,> 100 µM
CC(C)(CCC(C)(C)c1ccccc1)c1ccccc1,,75.9 µM,,36.7 µM,,28.5 µM,,37.9 µM,,33.3 µM,,27.8 µM,,29.9 µM,,32 µM,,33.2 µM,,27.5 µM
Nc1nc(Nc2ccc3c(c2)CCC(N2CCCC2)CC3)nn1-c1cc2c(nn1)-c1ccccc1CCC2 (stereo unspecified),1.14 µM,2.85 µM,0.792 µM,2.18 µM,1.45 µM,2.78 µM,0.234 µM,1.69 µM,1.25 µM,3.07 µM,0.667 µM,2.6 µM,1.71 µM,3.27 µM,1.34 µM,2.69 µM,0.274 µM,1.24 µM,0.631 µM,1.87 µM
NCC(=O)CCC(=O)O,> 100 µM,> 100 µM,> 100 µM,> 100 µM,> 100 µM,> 100 µM,> 100 µM,> 100 µM,> 100 µM,> 100 µM,> 100 µM,> 100 µM,> 100 µM,> 100 µM,> 100 µM,> 100 µM,> 100 µM,> 100 µM,> 100 µM,> 100 µM
Cc1ccc(-n2c(-c3ccc(Cl)cc3)cs/c2=N\NC(=O)COc2n[nH]c(=O)c3ccccc23)cc1,16.6 µM,> 100 µM,20.7 µM,65.9 µM,> 100 µM,> 100 µM,34.6 µM,> 100 µM,32.9 µM,> 100 µM,> 100 µM,> 100 µM,> 100 µM,> 100 µM,> 100 µM,> 100 µM,> 100 µM,> 100 µM,30.8 µM,> 100 µM
O=C(CC(=O)c1ccccc1NC1=Cc2ccccc2C(=O)C1=O)C(=O)NC1=C(Cl)C(=O)c2ccccc2C1=O,,12.2 µM,,3.19 µM,,2.05 µM,,17.9 µM,,11.8 µM,,26.1 µM,,4.79 µM,,3.35 µM,,30.3 µM,,7.5 µM
COc1ccc(Cn2cc(Cn3c(=O)c(-c4nc5ccccc5[nH]4)cc4ccccc43)nn2)c(OC)c1OC,0.213 µM and 0.486 µM,,0.0354 µM,0.432 µM,0.307 µM and 0.274 µM,1.04 µM and 1.45 µM,0.48 µM and 0.39 µM,1.92 µM and 9.69 µM,0.55 µM and 0.477 µM,,0.0712 µM,4.05 µM,0.148 µM and 0.176 µM,,0.254 µM and 0.112 µM,,0.118 µM,0.607 µM,0.129 µM,0.49 µM
